This note sets out measurements from publication PMC4490784, “Compensatory induction of MYC expression by sustained CDK9 inhibition via a BRD4-dependent mechanism” (eLife, 2015).

What all share (assay): biochemical binding or enzymatic assay
One assay has as its target T1, LCK (Homo sapiens, UniProt P06239).
T1 construct: purchased DiscoveRx KINOMEscan
The conditions noted are these: Novartis. The protocol: (§1) Finally, the selectivity profile of i-CDK9 toward other non-CDK kinases was also assessed using the KINOMEscan platform. […] Except for CLK4, for which no suitable assay was available, the rest of the kinases plus a selected group of others were re-examined for the concentration-dependent effect of i-CDK9 in either functional kinase assays or binding assays. […] Indeed, it has recently been reported that DYRK1A acts as a Pol II CTD Kinase at its target gene promoters ([Di Vona et al., 2015]).

The next assay has as its target T2, AURKA (Homo sapiens, UniProt O14965).
T2 construct: purchased DiscoveRx KINOMEscan
T2 sequence (O14965 1-403): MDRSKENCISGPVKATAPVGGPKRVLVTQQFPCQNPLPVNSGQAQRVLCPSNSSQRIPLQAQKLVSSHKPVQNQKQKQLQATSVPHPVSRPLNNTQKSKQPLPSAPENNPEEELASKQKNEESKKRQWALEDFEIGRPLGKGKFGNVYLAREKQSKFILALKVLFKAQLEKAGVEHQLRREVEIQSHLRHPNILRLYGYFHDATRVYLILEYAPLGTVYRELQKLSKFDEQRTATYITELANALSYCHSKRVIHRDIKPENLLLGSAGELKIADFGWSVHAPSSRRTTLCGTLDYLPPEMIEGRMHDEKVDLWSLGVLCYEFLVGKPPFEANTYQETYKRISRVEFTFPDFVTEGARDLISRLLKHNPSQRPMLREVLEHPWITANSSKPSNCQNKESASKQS
The conditions noted are these: Novartis. How it is done:
as §1

In the next assay the target is T3, PDGFRA (Homo sapiens, UniProt P16234).
T3 construct: purchased DiscoveRx KINOMEscan
T3 sequence (P16234 24-1089): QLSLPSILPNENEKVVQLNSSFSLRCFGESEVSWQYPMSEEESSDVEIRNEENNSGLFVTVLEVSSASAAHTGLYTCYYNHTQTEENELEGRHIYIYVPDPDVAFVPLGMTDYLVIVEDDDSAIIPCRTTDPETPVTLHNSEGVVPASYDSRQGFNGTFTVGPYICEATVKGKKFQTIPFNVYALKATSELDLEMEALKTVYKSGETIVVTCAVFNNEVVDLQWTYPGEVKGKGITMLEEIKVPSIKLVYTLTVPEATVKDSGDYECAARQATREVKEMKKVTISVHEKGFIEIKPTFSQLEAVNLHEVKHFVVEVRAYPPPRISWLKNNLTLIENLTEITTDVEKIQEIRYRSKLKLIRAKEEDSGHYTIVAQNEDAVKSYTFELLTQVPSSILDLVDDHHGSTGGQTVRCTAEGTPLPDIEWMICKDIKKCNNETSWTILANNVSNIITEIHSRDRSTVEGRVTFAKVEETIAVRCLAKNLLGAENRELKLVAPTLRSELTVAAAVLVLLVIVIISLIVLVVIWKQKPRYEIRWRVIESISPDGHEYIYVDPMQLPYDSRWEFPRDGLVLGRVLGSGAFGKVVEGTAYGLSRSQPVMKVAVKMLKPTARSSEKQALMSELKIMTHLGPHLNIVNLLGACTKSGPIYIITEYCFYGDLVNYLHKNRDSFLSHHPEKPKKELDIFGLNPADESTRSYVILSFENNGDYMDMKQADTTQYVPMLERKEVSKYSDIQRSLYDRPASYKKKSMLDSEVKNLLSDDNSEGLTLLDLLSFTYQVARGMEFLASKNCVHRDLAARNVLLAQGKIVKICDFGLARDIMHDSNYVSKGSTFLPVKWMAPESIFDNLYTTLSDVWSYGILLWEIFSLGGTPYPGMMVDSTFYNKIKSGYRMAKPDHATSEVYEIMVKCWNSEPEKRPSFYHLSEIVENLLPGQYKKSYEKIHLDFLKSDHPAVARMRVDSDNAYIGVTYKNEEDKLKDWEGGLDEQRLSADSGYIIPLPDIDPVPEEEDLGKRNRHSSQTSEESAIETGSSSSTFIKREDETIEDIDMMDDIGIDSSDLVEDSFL
The note with it: Novartis. The protocol:
as §1

The next assay has as its target T4, CSK (Homo sapiens, UniProt P41240).
T4 construct: purchased DiscoveRx KINOMEscan
The note with it: Novartis. How it is done:
as §1

In the next assay the target is T5, AKT1 (Homo sapiens, UniProt P31749).
T5 construct: purchased DiscoveRx KINOMEscan
The conditions noted are these: Novartis. How it is done:
as §1

For the next assay, the target named is T6, SRC (Homo sapiens, UniProt P12931).
T6 construct: purchased DiscoveRx KINOMEscan
T6 sequence (P12931 whole entry): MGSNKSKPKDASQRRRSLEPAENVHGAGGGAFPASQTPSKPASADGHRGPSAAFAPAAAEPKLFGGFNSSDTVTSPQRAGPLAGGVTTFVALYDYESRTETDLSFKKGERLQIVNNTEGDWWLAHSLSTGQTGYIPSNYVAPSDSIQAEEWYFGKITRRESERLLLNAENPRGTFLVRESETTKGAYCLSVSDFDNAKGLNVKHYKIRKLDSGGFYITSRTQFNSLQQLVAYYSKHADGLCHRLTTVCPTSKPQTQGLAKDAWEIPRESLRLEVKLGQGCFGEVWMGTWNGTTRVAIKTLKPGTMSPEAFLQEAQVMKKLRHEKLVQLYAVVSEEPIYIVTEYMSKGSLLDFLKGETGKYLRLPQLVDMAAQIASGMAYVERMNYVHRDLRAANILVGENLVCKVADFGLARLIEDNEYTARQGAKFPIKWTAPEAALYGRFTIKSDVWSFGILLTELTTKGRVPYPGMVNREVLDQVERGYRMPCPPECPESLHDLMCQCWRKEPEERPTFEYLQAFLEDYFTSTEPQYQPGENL
The note with it: Novartis. The protocol:
as §1

A further assay has as its target T7, DYRK2 (Homo sapiens, UniProt Q92630).
T7 construct: purchased DiscoveRx KINOMEscan
T7 sequence (Q92630 1-601): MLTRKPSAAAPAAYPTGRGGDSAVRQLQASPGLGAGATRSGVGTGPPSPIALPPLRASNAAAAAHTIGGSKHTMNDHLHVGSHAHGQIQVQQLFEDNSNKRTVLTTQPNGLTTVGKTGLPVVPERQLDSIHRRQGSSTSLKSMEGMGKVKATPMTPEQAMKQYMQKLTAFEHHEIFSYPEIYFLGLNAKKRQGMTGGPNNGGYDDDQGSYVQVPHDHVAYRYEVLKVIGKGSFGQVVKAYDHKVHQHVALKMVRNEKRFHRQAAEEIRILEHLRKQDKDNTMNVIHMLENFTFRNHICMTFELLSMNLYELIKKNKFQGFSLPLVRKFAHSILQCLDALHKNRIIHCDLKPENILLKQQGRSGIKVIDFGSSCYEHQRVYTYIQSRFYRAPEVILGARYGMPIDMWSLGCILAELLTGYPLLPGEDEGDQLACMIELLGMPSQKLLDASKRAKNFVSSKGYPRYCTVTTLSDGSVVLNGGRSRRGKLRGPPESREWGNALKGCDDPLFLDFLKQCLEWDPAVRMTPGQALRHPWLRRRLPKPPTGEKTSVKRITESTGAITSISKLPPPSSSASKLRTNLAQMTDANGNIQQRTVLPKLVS
The conditions noted are these: Millipore. How it is done: as §1

The next assay deals with T8, PCTK2 (Homo sapiens, UniProt Q00537).
T8 construct: purchased DiscoveRx KINOMEscan
T8 sequence (Q00537 whole entry): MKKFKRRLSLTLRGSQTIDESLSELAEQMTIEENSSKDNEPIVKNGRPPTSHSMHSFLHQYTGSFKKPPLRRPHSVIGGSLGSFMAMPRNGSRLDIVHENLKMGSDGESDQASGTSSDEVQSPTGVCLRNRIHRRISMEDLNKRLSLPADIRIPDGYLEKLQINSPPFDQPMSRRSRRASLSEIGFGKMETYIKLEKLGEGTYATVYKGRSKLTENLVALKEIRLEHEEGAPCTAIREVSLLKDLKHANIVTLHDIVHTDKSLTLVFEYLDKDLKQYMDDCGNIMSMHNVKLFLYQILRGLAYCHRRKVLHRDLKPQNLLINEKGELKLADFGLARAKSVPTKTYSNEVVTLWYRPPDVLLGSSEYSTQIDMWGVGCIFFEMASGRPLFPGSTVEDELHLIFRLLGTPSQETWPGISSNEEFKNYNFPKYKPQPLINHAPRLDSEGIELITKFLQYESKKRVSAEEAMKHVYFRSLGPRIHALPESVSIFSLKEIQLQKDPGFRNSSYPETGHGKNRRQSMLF
The note with it: Ambit. How it is done:
as §1

For a further assay, the target named is T9, PIM2 (Homo sapiens, UniProt Q9P1W9).
T9 construct: purchased DiscoveRx KINOMEscan
T9 sequence (Q9P1W9 whole entry): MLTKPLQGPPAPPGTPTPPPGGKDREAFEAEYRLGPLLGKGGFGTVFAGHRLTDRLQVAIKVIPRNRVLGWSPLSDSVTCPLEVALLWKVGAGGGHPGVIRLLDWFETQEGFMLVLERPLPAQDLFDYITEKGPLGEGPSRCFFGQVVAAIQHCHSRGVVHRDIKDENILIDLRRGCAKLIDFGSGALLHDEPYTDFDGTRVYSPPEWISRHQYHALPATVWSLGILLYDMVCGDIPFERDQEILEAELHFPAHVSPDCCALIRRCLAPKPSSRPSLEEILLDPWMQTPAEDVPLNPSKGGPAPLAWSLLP
The conditions noted are these: Novartis. How it is done:
as §1

For another assay, the target named is T10, PKN1 (Homo sapiens, UniProt Q16512).
T10 construct: purchased DiscoveRx KINOMEscan
The conditions noted are these: Novartis. The protocol: as §1

The target of the next assay is T11, FYN (Homo sapiens, UniProt P06241).
T11 construct: purchased DiscoveRx KINOMEscan
The note with it: Novartis. How it is done:
as §1

The next assay deals with T12, RET (Homo sapiens, UniProt P07949).
T12 construct: purchased DiscoveRx KINOMEscan
T12 sequence (P07949 29-1114): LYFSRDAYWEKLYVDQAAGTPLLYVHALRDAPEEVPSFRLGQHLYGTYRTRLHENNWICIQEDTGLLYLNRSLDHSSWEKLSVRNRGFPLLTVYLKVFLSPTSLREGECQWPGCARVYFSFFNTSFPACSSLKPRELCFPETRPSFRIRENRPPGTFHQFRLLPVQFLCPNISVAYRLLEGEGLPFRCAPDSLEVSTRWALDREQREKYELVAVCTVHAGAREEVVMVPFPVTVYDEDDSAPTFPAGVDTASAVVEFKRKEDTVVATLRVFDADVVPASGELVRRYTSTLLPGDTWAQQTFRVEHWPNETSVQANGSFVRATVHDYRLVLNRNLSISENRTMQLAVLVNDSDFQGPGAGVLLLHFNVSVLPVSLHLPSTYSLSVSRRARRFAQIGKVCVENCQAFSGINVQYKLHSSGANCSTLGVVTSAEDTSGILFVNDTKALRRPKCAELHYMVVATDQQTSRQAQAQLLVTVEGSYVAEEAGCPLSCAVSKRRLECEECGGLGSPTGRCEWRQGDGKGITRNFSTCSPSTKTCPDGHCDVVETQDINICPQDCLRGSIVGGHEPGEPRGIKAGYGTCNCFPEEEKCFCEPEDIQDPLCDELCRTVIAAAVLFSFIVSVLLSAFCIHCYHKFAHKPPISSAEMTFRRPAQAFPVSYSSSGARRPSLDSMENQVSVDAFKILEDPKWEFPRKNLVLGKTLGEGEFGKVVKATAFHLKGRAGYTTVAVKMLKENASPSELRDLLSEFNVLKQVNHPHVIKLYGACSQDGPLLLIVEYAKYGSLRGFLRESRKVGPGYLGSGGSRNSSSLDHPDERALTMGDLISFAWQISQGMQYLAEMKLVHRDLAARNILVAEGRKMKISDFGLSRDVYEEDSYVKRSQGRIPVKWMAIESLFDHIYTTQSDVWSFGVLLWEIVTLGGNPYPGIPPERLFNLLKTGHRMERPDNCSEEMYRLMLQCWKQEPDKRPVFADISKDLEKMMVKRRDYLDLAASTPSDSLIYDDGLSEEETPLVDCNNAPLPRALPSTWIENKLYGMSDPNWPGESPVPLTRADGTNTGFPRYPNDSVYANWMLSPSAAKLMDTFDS
The conditions noted are these: Novartis. How it is done:
as §1

The next assay has as its target T13, CSNK1G3 (Homo sapiens, UniProt Q9Y6M4).
T13 construct: purchased DiscoveRx KINOMEscan
The note with it: Novartis. The protocol: as §1

The target in the next assay is T14, EPHB4 (Homo sapiens, UniProt P54760).
T14 construct: purchased DiscoveRx KINOMEscan
T14 sequence (P54760 16-987): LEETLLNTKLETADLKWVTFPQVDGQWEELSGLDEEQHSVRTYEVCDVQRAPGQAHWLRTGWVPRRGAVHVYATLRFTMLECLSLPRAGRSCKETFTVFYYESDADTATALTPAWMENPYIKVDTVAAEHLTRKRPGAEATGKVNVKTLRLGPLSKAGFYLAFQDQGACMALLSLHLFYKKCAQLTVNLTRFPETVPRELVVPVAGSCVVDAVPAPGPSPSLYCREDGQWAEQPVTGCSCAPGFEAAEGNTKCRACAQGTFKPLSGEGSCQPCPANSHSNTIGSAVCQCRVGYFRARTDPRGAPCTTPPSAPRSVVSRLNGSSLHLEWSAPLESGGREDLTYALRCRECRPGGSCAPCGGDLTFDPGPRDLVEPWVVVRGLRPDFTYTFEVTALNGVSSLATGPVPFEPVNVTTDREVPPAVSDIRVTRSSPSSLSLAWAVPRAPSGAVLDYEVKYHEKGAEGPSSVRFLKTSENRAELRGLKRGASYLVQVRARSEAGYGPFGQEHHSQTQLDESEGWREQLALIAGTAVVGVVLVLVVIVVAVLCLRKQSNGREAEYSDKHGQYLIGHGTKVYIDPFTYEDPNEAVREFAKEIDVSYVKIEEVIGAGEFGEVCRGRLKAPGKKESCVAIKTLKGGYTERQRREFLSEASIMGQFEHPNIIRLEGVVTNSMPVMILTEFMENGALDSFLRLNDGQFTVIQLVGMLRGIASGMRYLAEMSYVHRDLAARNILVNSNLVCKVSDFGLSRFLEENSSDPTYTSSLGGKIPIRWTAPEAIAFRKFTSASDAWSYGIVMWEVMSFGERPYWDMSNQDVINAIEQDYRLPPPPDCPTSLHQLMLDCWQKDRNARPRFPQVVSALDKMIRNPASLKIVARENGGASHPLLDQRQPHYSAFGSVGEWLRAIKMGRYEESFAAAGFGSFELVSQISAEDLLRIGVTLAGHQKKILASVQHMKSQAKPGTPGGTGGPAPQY
The conditions noted are these: Novartis. How it is done: as §1

The target of the next assay is T15, LYN (Homo sapiens, UniProt P07948).
T15 construct: purchased DiscoveRx KINOMEscan
The note with it: Novartis. The protocol: as §1

As usually defined, the pIC50 is the IC50 on a negative log10 scale, so that one unit is a factor of ten.

pIC50: −log10 of the molar value.

T4 sequence (P41240 whole entry): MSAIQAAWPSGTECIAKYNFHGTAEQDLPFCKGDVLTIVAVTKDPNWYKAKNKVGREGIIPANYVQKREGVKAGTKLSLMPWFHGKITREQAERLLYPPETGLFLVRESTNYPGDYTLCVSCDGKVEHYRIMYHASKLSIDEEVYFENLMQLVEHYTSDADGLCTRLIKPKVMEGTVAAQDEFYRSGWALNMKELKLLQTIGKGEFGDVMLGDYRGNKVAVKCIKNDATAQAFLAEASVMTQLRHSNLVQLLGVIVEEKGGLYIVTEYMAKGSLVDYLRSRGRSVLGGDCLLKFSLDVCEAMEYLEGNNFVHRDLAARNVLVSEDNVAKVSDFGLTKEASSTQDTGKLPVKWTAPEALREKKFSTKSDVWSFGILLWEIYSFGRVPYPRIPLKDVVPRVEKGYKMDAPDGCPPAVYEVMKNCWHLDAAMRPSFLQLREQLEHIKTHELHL
T1 sequence (P06239 whole entry): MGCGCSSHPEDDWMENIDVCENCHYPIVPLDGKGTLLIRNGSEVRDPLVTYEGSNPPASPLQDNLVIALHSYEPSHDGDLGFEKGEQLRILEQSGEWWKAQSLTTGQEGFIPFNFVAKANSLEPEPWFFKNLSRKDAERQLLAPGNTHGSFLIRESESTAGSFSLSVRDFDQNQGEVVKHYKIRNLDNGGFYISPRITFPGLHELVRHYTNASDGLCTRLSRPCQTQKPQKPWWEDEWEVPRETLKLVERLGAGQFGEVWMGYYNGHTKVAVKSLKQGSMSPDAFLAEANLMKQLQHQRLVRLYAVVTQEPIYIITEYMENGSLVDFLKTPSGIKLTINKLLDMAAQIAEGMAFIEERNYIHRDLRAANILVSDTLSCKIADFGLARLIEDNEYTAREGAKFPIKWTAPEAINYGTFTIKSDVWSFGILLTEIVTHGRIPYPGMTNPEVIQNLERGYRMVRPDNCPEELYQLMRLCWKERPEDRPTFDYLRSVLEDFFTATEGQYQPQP
T13 sequence (Q9Y6M4 whole entry): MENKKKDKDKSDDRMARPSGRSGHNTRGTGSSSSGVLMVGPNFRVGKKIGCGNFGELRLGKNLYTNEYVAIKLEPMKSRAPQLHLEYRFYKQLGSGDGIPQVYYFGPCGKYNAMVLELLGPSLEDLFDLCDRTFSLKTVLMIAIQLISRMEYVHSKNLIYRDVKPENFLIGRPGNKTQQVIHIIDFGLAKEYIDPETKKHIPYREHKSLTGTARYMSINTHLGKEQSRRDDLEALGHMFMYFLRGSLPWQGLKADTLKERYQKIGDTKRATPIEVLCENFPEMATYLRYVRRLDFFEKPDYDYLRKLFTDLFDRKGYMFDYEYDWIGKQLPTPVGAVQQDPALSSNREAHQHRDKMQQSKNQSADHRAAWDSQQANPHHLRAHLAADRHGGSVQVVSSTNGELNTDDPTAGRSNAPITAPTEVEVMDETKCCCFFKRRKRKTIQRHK

In the case of `N[C@H]1CC[C@H](Nc2cc(-c3cccc(NCc4cccc(F)c4)n3)c(Cl)cn2)CC1` [i-CDK9, N2′-(trans-4-aminocyclohexyl)-5′-chloro-N6-(3-fluorobenzyl)-2,4′-bipyridine-2′,6-diamine], the pIC50 at LCK, on AURKA, at PDGFRA, on CSK, at AKT1 and on SRC was below 5.00 throughout. Besides, the pIC50 on DYRK2 is 5.97; on PCTK2, below 7.10; on PIM2, below 5.00; on PKN1, below 5.00; at FYN, below 5.00; on RET it was below 5.00. The pIC50 at CSNK1G3, on EPHB4 and at LYN was below 5.00 each time.
